Measurements reported in patent US12173029B2, “Antiviral prodrugs, pharmaceutical formulations, and methods” (priority 2020, dated 2024).
Read-outs that look alike come from different tables or passages of the source.

How the values were obtained:
[1] = test system: Human Coronavirus 229E; experiment: Example 8 human coronavirus 229E in MRC-5 cells (CPE, MTT); format: cell-based
Description: Human Coronavirus 229E (ATCC) was propagated and infectious units quantified by TCID50 using MRC-5 cells. For antiviral testing, approximately 10^4 MRC-5 cells were seeded per well in EMEM (10% FCS) at 37 C in a 96 well plate overnight. Medium from each well was removed and cells were infected with 100 TCID50 virus in 100 μL medium for two hours.
Cells were washed one time with medium and then compounds or controls added at the indicated concentrations. After three days, CPE was observed under microscope and quantified using an MTT cell proliferation assay kit (Abcam) read on an ELx800, Universal Microplate reader (BIO-TEK Instruments, INC). The % Inhibition was calculated as (Atv−Acv)/(Acd−Acv)×100% where Atv indicates the absorbance of the test compounds with virus infected cells and A, and Aca indicate the absorbance of the virus control and the absorbance of the cell control, respectively. The average half-maximal effective concentration (EC50) was defined as the concentration which achieved 50% inhibition of virus-induced cytopathic effects.
FIG. 4A and FIG. 4B: ODBG-P-RVn (15d) inhibits the human Alphacoronavirus 229E. […] Cells were infected with 229E for 2 hours followed by treatment with the indicated dose of the indicated drug for 72 hours. The relative CPE was determined by measuring cell viability using an MTT assay.

[2] = after intravenous infusion; cited from earlier work
[3] = test system: SARS-CoV-2 isolate USA-WA1/2020; experiment: Example 7 SARS-CoV-2 infection in Caco-2 cells (qRT-PCR); format: cell-based
[4] = test system: VERO E6 cells; experiment: Example 4 generation of remdesivir triphosphate in Vero E6 cells (LC/MS/MS); format: in vitro ADME, monkey
Description: In this example, Vero E6 cells were plated in 6 well plates at about 3.4×10^5 cells per well in 2 mL of media (DMEM, 10% FBS).
Cells were then incubated at 37° C. for 24 hours. Media was then aspirated and replaced with 2 ml of control media (fresh Dulbecco's Modified Eagle's Medium (DMEM), 10% FBS) or 2 mL of media with drug at a concentration of 1 μM. Cell were incubated with the various drugs for 48 hours. The media was aspirated, the cells rinsed twice with phosphate-buffered saline (PBS), trypsinized for 5 minutes with 1 mL ATV, triturated and removed to a 15 mL centrifuge tube, rinsed with 1 mL PBS, which was also then removed to the 15 mL centrifuge tube, and the cells were triturated again. Cells were counted in a Reichert hemocytometer using two 10 μL samples, and the number of cells in each sample was determined.
Cells were centrifuged at 1200 rpm for 10 minutes, diluent aspirated and the pellet resuspended in 250 μL of methanol/distilled water (70/30) and analyzed by LC/MS/MS. The results, which are depicted at FIG. 3, were in picomoles/10^6 cells and are the average of two or three determinations.

[5] = Example 7 cell viability assay (CellTiter-Glo) in Vero E6 cells; conditions: monkey
[6] = test system: SARS-CoV-2 isolate USA-WA1/2020; experiment: Example 3 SARS-CoV-2 infection in Vero E6 cells (qRT-PCR Spike RNA); format: cell-based; conditions: for EC50 / EC90: Severe acute respiratory syndrome coronavirus 2, Vero C1008, SARS-CoV-2 USA-WA1/2020, Vero E6 cells, MOI 0.01, 48 hours, mean±SD
[7] = test system: SARS-CoV-2; experiment: Example 7 SARS-CoV-2 antiviral activity, summary across the five cell types; format: cell-based; conditions: Severe acute respiratory syndrome coronavirus 2; SARS-CoV-2, five cell types of Example 7; read-out: EC50, range across cell types
[8] = Example 7 cell viability assay (CellTiter-Glo) in PSC-human lung cells
[9] = test system: SARS-CoV-2 isolate USA-WA1/2020; experiment: Example 7 SARS-CoV-2 infection in Calu-3 cells (qRT-PCR); format: cell-based; conditions: for EC50 / EC90: Severe acute respiratory syndrome coronavirus 2, SARS-CoV-2, Calu-3 cells, MOI 0.01, 48 hours
[10] = test system: USA WA-01 strain of SARS CoV-2; experiment: Example 2 anti-coronavirus activity in Vero E6 cells (qPCR spike RNA); format: cell-based; conditions: Vero C1008, SARS CoV-2 USA WA-01, Vero E6 cells, MOI 0.1, 48 hours
Description: Ten thousand Vero E6 cells were seeded in 100 microliters of culture medium in 96 well plates. The following day serial two-fold dilutions of antiviral compounds or the DMSO-containing vehicle were added to each well. The USA WA-01 strain of SARS CoV-2 was added to each well at a multiplicity of infection of 0.1 thirty minutes later. Cells were incubated for 48 hours, washed twice in PBS and lysed with TRIzol. RNA was extracted using Directzol micro RNA columns. RNA was made into cDNA and assayed for the SARS CoV-2 spike protein and for a housekeeping gene (RPLPO) RNA by qPCR. Data represents the average of duplicate wells. Cellular cytotoxicity was also measured in VERO E6 cells. […] Cytotoxicity (CC50) was assessed using a commercially available MTT assay.

[11] = Example 8 cytotoxicity in MRC-5 cells (CellTiter-Glo); format: cell-based; conditions: human
Description: FIG. 4B depicts the cytotoxicity in MRC-5 cells incubated in the presence of the indicated drug at the indicated concentration for 72 hours, after which cell viability was measured by the CellTiter-Glo assay. Data points indicate the averages from 3 independent experiments performed in duplicate. Error bars represent the standard error mean (SEM).

[12] = test system: SARS-CoV-2 isolate USA-WA1/2020; experiment: Example 7 SARS-CoV-2 infection in PSC-human lung cells (qRT-PCR); format: cell-based
[13] = Example 7 cell viability assay (CellTiter-Glo) in Huh7.5 cells; conditions: human
[14] = test system: SARS-CoV-2 isolate USA-WA1/2020; experiment: Example 7 SARS-CoV-2 infection in Huh7.5 cells (qRT-PCR); format: cell-based; conditions: for EC50 / EC90: Severe acute respiratory syndrome coronavirus 2, SARS-CoV-2, Huh7.5 cells, MOI 0.01, 48 hours, qRT-PCR, Example 7
[15] = Example 7 cytotoxicity, summary across all cell lines; format: cell-based; conditions: monkey, human; five cell types of Example 7, 48 hours
Description: The cytotoxicity of each compound by incubating each of these cell lines with serial dilutions of each compound from 1.23 μM to 100 μM for 48 hours. […] The selectivity index of ODBG-P-RV ranged from 295 to 699 in the five cell types tested in this example).

[16] = test system: SARS-CoV-2; experiment: Example 6 SARS-CoV-2 infection assay in Huh7.5 cells (nucleocapsid immunofluorescence); format: cell-based; conditions: SARS CoV-2, Huh7.5 cells, MOI 0.1, 48 hours, percent infected cells
[17] = test system: SARS-CoV-2; experiment: Example 6 SARS-CoV-2 infection assay in TMPRSS2-Vero cells (nucleocapsid immunofluorescence); format: cell-based; conditions: SARS CoV-2, TMPRSS2-Vero cells, MOI 0.01, 32 hours, percent infected cells
[18] = test system: Human Coronavirus 229E; format: cell-based; conditions: HCoV-229E in MRC-5 cells, three days, CPE by MTT
[19] = format: in vivo; conditions: Syrian hamsters, sodium salt
Description: ODBG-P-RVn in 0.1M sodium carbonate/bicarbonate buffer, pH 9.0, was administered to Syrian Hamsters by oral gavage every 12 hours for seven days. ODBG-P-RVn was present as the sodium salt.
FIG. 5A and FIG. 5B depict the seven day oral pharmacokinetics in Syrian hamsters. Syrian hamsters were given vehicle or ODBG-P-RVn by oral gavage every 12 hours for 7 days. Groups of 3 animals received vehicle or drug at doses of 16.9 and 13.2 mg/kg. Animals were weighed daily and monitored for clinical signs.
Analytical Methods: ODBG-P-RVn: Hamster plasma samples (10 μL) containing ODBG-P-RVn and K2EDTA as the anticoagulant were added to polypropylene tubes containing water (100 μL), internal standard solution (10 μL; 1,000 ng/mL of ODE-P-RVn in ACN:DMF (1:1, v/v)), and 10 μL of ACN:DMF (1:1, v/v). The solutions were mixed, then acidified with phosphoric acid, 85% w/v:water (1:19, v/v; 10 μL), mixed, then diluted with 200 μL of IPA, mixed, then diluted with 500 μL of water, and mixed. […] The ODBG-P-RVn extracts were analyzed using an Agilent 1200 HPLC system (Agilent, Santa Clara, CA) coupled to an API5500 mass analyzer (SCIEX, Foster City, CA). […]
The solutions were mixed and centrifuged at 16,000 g for five minutes. […] The GS-441524 extracts were analyzed using an Acquity UPLC system (Waters, Milford, MA) coupled to a G2-S QTof mass analyzer (Waters, Milford, MA). […]

[20] = test system: SARS-CoV-2 isolate USA-WA1/2020; experiment: Example 7 SARS-CoV-2 infection in Vero E6 cells (qRT-PCR); format: cell-based; conditions: Severe acute respiratory syndrome coronavirus 2, Vero C1008, SARS-CoV-2, Vero E6 cells, MOI 0.01, 48 hours
[21] = Example 2 cellular cytotoxicity in Vero E6 cells (MTT); conditions: monkey
[22] = Severe acute respiratory syndrome coronavirus 2, SARS-CoV-2, Caco-2 cells, MOI 0.01, 48 hours
[23] = Severe acute respiratory syndrome coronavirus 2, SARS-CoV-2, PSC-human lung cells, MOI 0.01, 48 hours

For `CCC(CC)COC(=O)[C@H](C)N[P@](=O)(OC[C@H]1O[C@@](C#N)(c2ccc3c(N)ncnn23)[C@H](O)[C@@H]1O)Oc1ccccc1` [RDV, Remdesivir], the EC50 ([1]; MRC5, 229E in MRC-5 cells, 72 hours, CPE by MTT, Example 8) is given as 0.04 µM, the EC90 ([1]; MRC5, 72 h) is given as 0.26 µM and the “persistence in plasma at virologically significant levels” value [2] is given as “less than 2 hours”. The EC50 [3, 22] was 0.17 µM, the EC90 [3, 22] was 0.28 µM and the “levels of RVn-TP” value ([4]; 1 μM drug, at 8 and 24 hours) was “below the level of quantification”. It also gave a CC50 at 48.5 h [5] of 101 µM, an EC50 [6] of 4.6 µM and an EC90 [6] of 8.9 ± 4.9 µM. It also gave an EC50 [7] of 0.06 to 1.13 µM, a CC50 at 48.5 h [8] of 32.7 µM and an EC50 [9] of 0.23 µM. It also gave an EC90 [9] of 0.31 µM, an EC50 [10] of 3.16 µM and an EC90 [10] of 5.5 µM. It also gave a CC50 at 72 h [11] greater than 50 µM, an EC50 [12, 23] of 0.14 µM and an EC90 [12, 23] of 0.23 µM. It also gave a CC50 at 48.5 h [13] of 15.2 µM, an EC50 [14] of 0.06 µM and an EC90 [14] of 0.12 µM. The CC50 at 48 h [15] was no less than 15.2 µM.

For “1-O-octadecyl-2-O-benzyl-sn-glycerol-benzyl-phospho-RVn [Compound 16]”, the EC50 [16] was 3.54 ± 0.583 µM, the EC90 [16] was 16.4 ± 5.98 µM and the EC50 [17] was 7.44 ± 0.818 µM. For the same compound, the EC90 [17] was 15.3 ± 5.91 µM, the EC50 [18] was 1.5 ± 0.93 µM and the EC90 [18] was 4.27 ± 0.88 µM.

In the case of `CCCCCCCCCCCCCCCCCCOC[C@H](COP(=O)(O)OC[C@H]1O[C@@](C#N)(c2ccc3c(N)ncnn23)[C@H](O)[C@@H]1O)OCc1ccccc1` [Compound 15d, 1-O-octadecyl-2-O-benzyl-glyceryl-sn-3-phospho-RVn], the “synthesis of remdesivir triphosphate (RVn-TP)” value ([4]; exposure to 1 micromolar drug, up to 48 hours) is reported as “increased progressively to 48 hours”, the “tolerability / clinical signs” value ([19]; oral gavage every 12 hours for seven days, 16.9 and 13.2 mg/kg) is reported as “well tolerated, and no adverse clinical signs were noted” and the “time for plasma levels to fall by 50%” value ([19]; oral gavage) is reported as “about 5 hours”.

`N#C[C@@]1(c2ccc3c(N)ncnn23)O[C@H](CO)[C@@H](O)[C@H]1O` [RVn, 2-C-(4-aminopyrrolo[2,1-f][1,2,4]triazin-7-yl)-2,5-anhydro-D-altrononitrile] gave an EC50 [20] of 0.38 µM, an EC90 [20] of 0.77 µM and a CC50 [21] greater than 50 µM. For the same compound, the Selectivity ([3]; Selectivity index CC50/EC50, Caco-2 cells) was greater than 104, the EC50 [3, 22] was 0.96 µM and the Selectivity ([6]; Selectivity index, CC50/EC50, Vero E6 cells, Example 3) was greater than 58.8. The EC50 [6] was 1.7 µM, the EC90 [6] was 3.2 ± 0.77 µM and the Selectivity ([9]; Selectivity index CC50/EC50, Calu-3 cells) was greater than 666. It also gave an EC50 [9] of 0.15 µM, an EC90 [9] of 0.18 µM and an EC50 [10] of 1.56 µM. It also gave an EC90 [10] of 2.69 µM, a Selectivity ([12]; Selectivity index CC50/EC50, PSC-human lung cells) greater than 135 and an EC50 [12, 23] of 0.74 µM. The Selectivity ([14]; Selectivity index CC50/EC50, Huh7.5 cells) was greater than 312, the EC50 [14] was 0.32 µM and the EC90 [14] was 0.73 µM.
